Reference: patent US12128084B2, “Use of PAYCS in regulation of intestinal flora, metabolites, and brain neurotransmitters” (Sericulture and Agri-Food Research Institute, Guangdong …, priority 2022, dated 2024)

Key:
Type in all cases: in vivo
[1] = tested on: brain neurotransmitters; assay: brain neurotransmitters of amnesic mice
[2] = tested on: intestinal microflora; assay: 16S rRNA analysis of intestinal microflora of amnesic mice
Excerpt: The symbols * and ** represent P<0.05 and P<0.01, respectively.

[3] = tested on: IL-1β and TNF-α in liver and serum; assay: liver and serum inflammatory indexes of amnesic mice
[4] = tested on: MDA, LDH, SOD, GP(x) in liver and serum; assay: liver and serum oxidation indexes of amnesic mice
[5] = tested on: mice with amnesia induced by scopolamine; assay: behavioral test (jumping test, swimming test; training part and test part) in scopolamine-induced amnesic mice
Protocol: The mice were tested for a jumping test (FIG. 1A), swimming speed (FIG. 1), swimming distance (FIG. 1C), the number of crossings on the target platform (FIG. 1D), the number of crossings on the target quadrants (FIG. 1E), the escape latency and the error times (FIG. 1F) during the training. In the test part, the swimming distance, the swimming speed, number of crossings on target quadrant (FIG. 1G), the number of crossings on the target platform, and escape latency (H) were determined. In these figures, #: compared with the control group, P<0.05; compared with the control group, P<0.01; *: compared model group, P<0.05; **: compared with the model group, P<0.01.
FIG. 7 is an experiment designed to evaluate the effect of PAYCS-L (lower dose of SEQ ID NO: 1) and PAYCS-H (higher dose of SEQ ID NO: 1) on learning and memory function in mice with amnesia induced by scopolamine.

[6] = tested on: fecal metabolites; assay: fecal metabolites of amnesic mice
Excerpt: The scores of variable importance in projection (VIP) for symbol ** and symbol *** are P<0.05, P<0.01, and P<0.001 respectively.

[7] = PAYCS-H (higher dose), scopolamine-induced amnesic mice
[8] = scopolamine-induced amnesic mice

Substance: Pro-Ala-Tyr-Cys-Ser (PAYCS; sequence of the peptide ProAlaTyrCysSer)
- neurotransmitters ([1]; e.g. Ach, GABA, Glu, HisA, Kyn): significantly up-regulated
- brain neurotransmitters in amnesic mice ([1]; mouse, in vivo): regulatory effect
- tryptophan metabolism-related neurotransmitters in the brain ([1]; mouse, in vivo): improves
- relative abundance of Cacteroidaceae ([2]; 16S rRNA analysis): increased
- relative abundance of Prevotellaceae ([2]; 16S rRNA analysis): increased
- intestinal microorganisms ([2]; PAYCS-H (higher dose)): re-modulates
- abundance of intestinal microorganism population in amnesic mice ([2]; PAYCS-L (lower dose)): reconstitutes
- ratio of Bacteroidetes/Firmicutes ([2]; PAYCS-L (lower dose), 16S rRNA analysis): changed
- anti-inflammatory effect ([3]; PAYCS-H (higher dose)): good
- inflammatory stress in the liver and serum ([3]; PAYCS-H (higher dose)): reverses
- IL-1β in the liver [3, 7]: inhibit the increase
- TNF-α in the liver [3, 7]: inhibit the increase
- content of TNF-α in the liver ([3]; PAYCS-L (lower dose), scopolamine-induced amnesic mice, only TNF-α): reduces
- antioxidant effect ([4]; PAYCS-H (higher dose)): good
- oxidative stress in the liver and serum ([4]; PAYCS-H (higher dose)): reverses
- liver and serum deficits ([4]; mouse, in vivo): positive effect
- LDH level in serum [4, 8]: significantly reduce
- MDA level in serum [4, 8]: significantly reduce
- SOD content in the liver [4, 8]: significantly increase
- cognitive function in the test part of the behavioral test ([5]; PAYCS-H (0.4 g/kg bw, higher dose), 3 weeks of treatment, scopolamine-induced mouse model): better improvement
- memory enhancement in the training part of the behavioral test ([5]; PAYCS-L (0.2 g/kg bw, lower dose), 3 weeks of treatment, scopolamine-induced mouse model): better effect of memory enhancement
- memory deficits in amnesic mice ([5]; PAYCS-L (lower dose)): partially reverses
- scopolamine-induced memory impairment in mice ([5]; mouse, in vivo): remedies
- fecal metabolites ([6]; PAYCS-H (higher dose)): re-modulates
- memory-related metabolites ([6]; e.g. Panax notoginseng saponins and cholinergic acid): significantly up-regulated
- memory-related metabolites ([6]; e.g. blumealactone C, thalictroidine, notoginsenoside M, 3a,7a,12b-trihydroxy-5b-cholanoic acid, sequiterpene lactone 326, helenalin, cholic acid): significantly up-regulated
- fecal metabolites in amnesic mice ([6]; mouse, in vivo): regulatory effect
